In PubChem BioAssay AID493161 (The Scripps Research Institute Molecular Screening Center, 2011):
The source made the active and inactive calls. The rule behind the calls is not given here.

test: cytotoxicity of cultured cells, dose response, cytotoxicity control for LYPLA1/LYPLA2 dual inhibitor project, cell-based, absorbance, serum-free or FCS media (AID 493161); conditions: absorbance cell survival, serum-free media

Row | Compound | CC50
1 | CC(C)(O)c1cnn(C(=O)N2CCC(C(C)(C)C)CC2)n1 | > 9 µM
2 | CC(C)(C)C1CCN(C(=O)n2ncc(C(O)(c3ccccc3)c3ccccc3)n2)CC1 | > 35 µM (inactive)
3 | CCC1CCCCN1C(=O)n1ncc(C(O)(c2ccccc2)c2ccccc2)n1 (stereo unspecified) | > 50 µM (inactive)

same assay, conditions: absorbance cell survival, with FCS

Row | Compound | CC50
4 | CC(C)(O)c1cnn(C(=O)N2CCC(C(C)(C)C)CC2)n1 | > 27 µM (inactive)
5 | CC(C)(C)C1CCN(C(=O)n2ncc(C(O)(c3ccccc3)c3ccccc3)n2)CC1 | > 50 µM (inactive)
6 | CCC1CCCCN1C(=O)n1ncc(C(O)(c2ccccc2)c2ccccc2)n1 (stereo unspecified) | > 50 µM (inactive)
